Laboratory results reported in US12234230B2, “Substituted benzyl-triazole compounds for Cbl-b inhibition, and further uses thereof” (Nurix Therapeutics, Inc., priority 2019, dated 2025).
Like-named read-outs stand apart in the source and are kept apart here.

Legend:
[1] = target: Cbl-b (Homo sapiens (Human), UniProt Q13191); test: Cbl-b displacement assay (Cbl-b inhibition assay), Biological Example 1; assay type: binding
Description: The ability of candidate compounds to displace a known inhibitor and thereby inhibit Cbl-b activity was measured by monitoring the interaction of Cbl-b with a fluorophore-labeled probe in the presence of the candidate compound.
Following the one hour incubation, the plates were read for TR-FRET signal at 520/620 nm using an Envision plate reader (Perkin Elmer).

[2] = test system: primary human total T-cells; test: Primary human total T-cell activation (IL-2 secretion, CD25 surface staining), Biological Example 2; details: fold change over baseline; for IL-2 secretion CD3/CD28 0.3 μM / CD25 staining CD3/CD28 0.3 μM: 0.3 μM inhibitor; for IL-2 secretion CD3/CD28 0.3 μM / IL-2 secretion CD3/CD28 1 μM / CD25 staining CD3/CD28 0.3 μM / CD25 staining CD3/CD28 1 μM: anti-CD3 and anti-CD28 co-stimulation; for IL-2 secretion CD3/CD28 1 μM / CD25 staining CD3 1 μM / IL-2 secretion CD3 1 μM / CD25 staining CD3/CD28 1 μM: 1 μM inhibitor; for CD25 staining CD3 1 μM / IL-2 secretion CD3 1 μM / CD25 staining CD3 3 μM / IL-2 secretion CD3 3 μM: anti-CD3 stimulation alone; for CD25 staining CD3 3 μM / IL-2 secretion CD3 3 μM: 3 μM inhibitor
[3] = 0.125 nM Cbl-b final concentration (Low), read-out: Cbl-b activity IC50 (Low)
[4] = read-out: IC50 values in the Cbl-b inhibition assay of Biological Example 1

Sequence of Cbl-b (Q13191 36-427): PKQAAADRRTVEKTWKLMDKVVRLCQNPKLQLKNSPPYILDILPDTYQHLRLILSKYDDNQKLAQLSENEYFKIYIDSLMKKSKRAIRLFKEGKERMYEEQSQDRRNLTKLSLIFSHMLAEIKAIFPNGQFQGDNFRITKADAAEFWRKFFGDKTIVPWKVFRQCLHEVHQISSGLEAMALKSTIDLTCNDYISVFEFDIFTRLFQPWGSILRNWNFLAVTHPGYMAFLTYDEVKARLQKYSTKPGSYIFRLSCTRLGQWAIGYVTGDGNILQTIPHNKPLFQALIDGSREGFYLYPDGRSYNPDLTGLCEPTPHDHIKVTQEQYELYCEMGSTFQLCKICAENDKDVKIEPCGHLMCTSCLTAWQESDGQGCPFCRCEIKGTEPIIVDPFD

Compound	IC50 [1, 3]	IL-2 secretion CD3/CD28 0.3 μM [2]	IL-2 secretion CD3/CD28 1 μM [2]	CD25 staining CD3 1 μM [2]	IL-2 secretion CD3 1 μM [2]	CD25 staining CD3 3 μM [2]	IL-2 secretion CD3 3 μM [2]	IC50 [1, 4]	CD25 staining CD3/CD28 0.3 μM [2]	CD25 staining CD3/CD28 1 μM [2]	IC50 ([1]; 0.5 nM Cbl-b final concentration (High), read-out: Cbl-b activity IC50 (High))
Cc1cc(C(=O)Nc2cccc([C@]3(c4nncn4C)C[C@H](C)C3)c2)nc(C2CC2)n1 [Compound 22, 2-cyclopropyl-6-methyl-N-{3-[(1s,3r)-3-methyl-1-(4-methyl-1,2,4-triazol-3-yl)cyclobutyl]phenyl}pyrimidine-4-carboxamide]	20 to 100 nM	C (C indicates <20 fold)	C (C indicates <20 fold)	C (C indicates <1.5 fold)	C (C indicates <0.70 fold)	C (C indicates <1.5 fold)	C (C indicates <0.70 fold)	–	–	–	–
CC(c1cc2c(c(C(F)(F)F)c1)CN(c1cccc([C@@H](c3nncn3C)C3CCC3)c1)C2=O)N1CCC(F)(F)[C@H](C)C1 (stereo partly drawn) [Compound 14, 2-(3-((S)-cyclobutyl(4-methyl-4H-1,2,4-triazol-3-yl)methyl)phenyl)-6-(1-((R)-4,4-difluoro-3-methylpiperidin-1-yl)ethyl)-4-(trifluoromethyl)isoindolin-1-one]	20 to 100 nM	C (C indicates <20 fold)	C (C indicates <20 fold)	C (C indicates <1.5 fold)	C (C indicates <0.70 fold)	C (C indicates <1.5 fold)	C (C indicates <0.70 fold)	20 to 100 nM	B (B indicates 1.24-1.39 fold)	–	–
C[C@@H]1CN(Cc2cc3c(c(C(F)(F)F)c2)CN(c2cccc([C@]4(c5nncn5C)C[C@H](CC#N)C4)c2)C3=O)CCC1(F)F [Compound 51, 2-((1R,3r)-3-(3-(6-(((R)-4,4-difluoro-3-methylpiperidin-1-yl)methyl)-1-oxo-4-(trifluoromethyl)isoindolin-2-yl)phenyl)-3-(4-methyl-4H-1,2,4-triazol-3-yl)cyclobutyl)acetonitrile]	< 5 nM	A (A indicates >35 fold)	A (A indicates >35 fold)	A (A indicates >2.5 fold)	A (A indicates >1.1 fold)	A (A indicates >2.5 fold)	A (A indicates >1.1 fold)	–	B (B indicates 1.24-1.39 fold)	B (B indicates 1.24-1.39 fold)	–
Cc1cc(C(=O)Nc2cccc([C@@H](c3nncn3C)C3CCC3)c2)nc(C2CC2)n1 [Compound 12, (S)—N-(3-(cyclobutyl(4-methyl-4H-1,2,4-triazol-3-yl)methyl)phenyl)-2-cyclopropyl-6-methylpyrimidine-4-carboxamide]	–	C (C indicates <20 fold)	C (C indicates <20 fold)	C (C indicates <1.5 fold)	–	C (C indicates <1.5 fold)	–	–	–	–	> 100 nM
Cn1cnnc1C(C)(c1cccc(N2Cc3c(cccc3C(F)(F)F)C2=O)c1)C1CCC1 (stereo not drawn) [Compound 18, 2-(3-(1-cyclobutyl-1-(4-methyl-4H-1,2,4-triazol-3-yl)ethyl)phenyl)-4-(trifluoromethyl)isoindolin-1-one]	> 100 nM	C (C indicates <20 fold)	C (C indicates <20 fold)	B (B indicates 1.5-2.5 fold)	C (C indicates <0.70 fold)	A (A indicates >2.5 fold)	C (C indicates <0.70 fold)	> 100 nM	B (B indicates 1.24-1.39 fold)	B (B indicates 1.24-1.39 fold)	–
C[C@H]1CCCN(Cc2cc3c(c(C(F)(F)F)c2)CN(c2cccc(C4(c5nncn5C)COC4)c2)C3=O)C1 [Compound 46, 6-[[(3S)-3-methyl-1-piperidyl]methyl]-2-[3-[3-(4-methyl-1,2,4-triazol-3-yl)oxetan-3-yl]phenyl]-4-(trifluoromethyl)isoindolin-1-one]	< 5 nM	A (A indicates >35 fold)	A (A indicates >35 fold)	B (B indicates 1.5-2.5 fold)	A (A indicates >1.1 fold)	A (A indicates >2.5 fold)	A (A indicates >1.1 fold)	–	B (B indicates 1.24-1.39 fold)	B (B indicates 1.24-1.39 fold)	–
C[C@@H]1CN(Cc2cc3c(c(C(F)(F)F)c2)CN(c2cccc([C@@H](c4nncn4C)C4CCC4)c2)C3=O)CCC1(F)F [Compound 2, 2-(3-((S)-cyclobutyl(4-methyl-4H-1,2,4-triazol-3-yl)methyl)phenyl)-6-(((R)-4,4-difluoro-3-methylpiperidin-1-yl)methyl)-4-(trifluoromethyl)isoindolin-1-one]	> 100 nM	A (A indicates >35 fold)	A (A indicates >35 fold)	A (A indicates >2.5 fold)	A (A indicates >1.1 fold)	A (A indicates >2.5 fold)	B (B indicates 0.70-1.1 fold)	> 100 nM	–	–	–
C[C@@H]1CN(Cc2cc3c(c(C(F)(F)F)c2)CN(c2cccc(C4(c5nncn5C)CC(F)(F)C4)c2)C3=O)CCC1(F)F [Compound 52, 2-{3-[3,3-difluoro-1-(4-methyl-1,2,4-triazol-3-yl)cyclobutyl]phenyl}-6-{[(3R)-4,4-difluoro-3-methylpiperidin-1-yl]methyl}-4-(trifluoromethyl)-3H-isoindol-1-one]	< 5 nM	A (A indicates >35 fold)	B (B indicates 20-35 fold)	A (A indicates >2.5 fold)	A (A indicates >1.1 fold)	A (A indicates >2.5 fold)	A (A indicates >1.1 fold)	–	–	–	–
C[C@@H]1CN(Cc2cc3c(c(C(F)(F)F)c2)CN(c2cccc([C@]4(c5nncn5C)C[C@H](C)C4)c2)C3=O)CCC1(F)F [Compound 20, 6-(((R)-4,4-difluoro-3-methylpiperidin-1-yl)methyl)-2-(3-((1r,3R)-3-methyl-1-(4-methyl-4H-1,2,4-triazol-3-yl)cyclobutyl)phenyl)-4-(trifluoromethyl)isoindolin-1-one]	20 to 100 nM	C (C indicates <20 fold)	C (C indicates <20 fold)	A (A indicates >2.5 fold)	B (B indicates 0.70-1.1 fold)	A (A indicates >2.5 fold)	A (A indicates >1.1 fold)	–	B (B indicates 1.24-1.39 fold)	B (B indicates 1.24-1.39 fold)	–
CO[C@H]1C[C@](c2cccc(N3Cc4c(cc(CN5CCC(F)(F)[C@H](C)C5)cc4C(F)(F)F)C3=O)c2)(c2nncn2C)C1 [Compound 36, 6-(((R)-4,4-difluoro-3-methylpiperidin-1-yl)methyl)-2-(3-(trans-3-methoxy-1-(4-methyl-4H-1,2,4-triazol-3-yl)cyclobutyl)phenyl)-4-(trifluoromethyl)isoindolin-1-one]	< 5 nM	C (C indicates <20 fold)	C (C indicates <20 fold)	C (C indicates <1.5 fold)	C (C indicates <0.70 fold)	C (C indicates <1.5 fold)	C (C indicates <0.70 fold)	–	–	–	–
C[C@H]1CCCN(Cc2cc3c(c(C(F)(F)F)c2)CN(c2cccc([C@]4(c5nncn5C)C[C@H](CC#N)C4)c2)C3=O)C1 [Compound 50, 2-((1S,3r)-3-(4-methyl-4H-1,2,4-triazol-3-yl)-3-(3-(6-(((S)-3-methylpiperidin-1-yl)methyl)-1-oxo-4-(trifluoromethyl)isoindolin-2-yl)phenyl)cyclobutyl)acetonitrile]	< 5 nM	A (A indicates >35 fold)	A (A indicates >35 fold)	A (A indicates >2.5 fold)	A (A indicates >1.1 fold)	A (A indicates >2.5 fold)	A (A indicates >1.1 fold)	–	–	–	–
